Measured values as given in patent US5883294A, “Selective thyroid hormone analogs” (The Regeants of the University of California, priority 1997, dated 1999).

Target: T1, TR α1 (Rattus norvegicus, UniProt P63059)
T1 construct: made in house; host or cells: E. coli
Experiment: Receptor Binding Assays of TR Ligands ([125I]T3 displacement), TR α1

T1 sequence (P63059 other isoform, or with tags, fused parts or gaps): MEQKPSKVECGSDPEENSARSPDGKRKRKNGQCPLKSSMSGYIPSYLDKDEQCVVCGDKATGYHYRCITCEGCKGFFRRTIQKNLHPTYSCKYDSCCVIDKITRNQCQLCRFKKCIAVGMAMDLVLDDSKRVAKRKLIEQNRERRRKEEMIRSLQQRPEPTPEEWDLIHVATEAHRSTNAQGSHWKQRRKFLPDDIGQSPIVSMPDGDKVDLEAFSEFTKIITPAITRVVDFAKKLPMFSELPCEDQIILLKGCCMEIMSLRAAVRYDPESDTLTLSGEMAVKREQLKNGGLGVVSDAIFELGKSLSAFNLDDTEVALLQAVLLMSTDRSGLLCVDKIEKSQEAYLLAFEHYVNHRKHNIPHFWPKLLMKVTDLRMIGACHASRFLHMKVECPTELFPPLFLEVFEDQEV

For `Cc1cc(OCC(=O)O)cc(C)c1Cc1ccc(O)c(C(C)C)c1` [GC1, [3,5-dimethyl-4-(4'-hydroxy-3'-isopropylbenzyl)-phenoxy] acetic acid], the IC50 was 20 nM.
